These results are taken from US8697725B2, “Tetrahydroquinoline derivatives and their pharmaceutical use” (GlaxoSmithKline LLC, priority 2009, dated 2014).

One assay concerns TNFα. Kind of assay: LPS Stimulated Whole Blood Measuring TNFα Levels Assay. It counts as cell-based. To be noted: 24 h, LPS 200 ng/ml, immunoassay, read-out: pIC50, TNFα levels in LPS stimulated whole blood (converted). How it is done:
LPS Stimulated Whole Blood Measuring TNFα Levels Assay
Activation of monocytic cells by agonists of toll-like receptors such as bacterial lipopolysaccharide (LPS) results in production of key inflammatory mediators including TNFα. Such pathways are widely considered to be central to the pathophysiology of a range of auto-immune and inflammatory disorders.
Compounds to be tested are diluted to give a range of appropriate concentrations and 1 ul of the dilution stocks is added to wells of a 96 plate. Following addition of whole blood (130 ul) the plates are incubated at 37 degrees (5% CO2) for 30 min before the addition of 10 ul of 2.8 ug/ml lipopolysaccharides (LPS), diluted in complete RPMI 1640 (final concentration=200 ng/ml), to give a total volume of 140 ul per well. After further incubation for 24 hours at 37 degrees, 140 ul of PBS are added to each well. The plates are sealed, shaken for 10 minutes and then centrifuged (2500 rpm×10 min). 100 ul of the supernatant are removed and TNFα levels assayed by immunoassay (typically by MesoScale Discovery technology) either immediately or following storage at −20 degrees. Dose response curves for each compound was generated from the data and an IC50 value was calculated.

A further assay relates to IL-6. The experiment in a line: Measurement of LPS Induced IL-6 Secretion from Whole Blood. It is filed as cell-based. As to conditions: 24 h, LPS 200 ng/ml, immunoassay, read-out: pIC50, LPS induced IL-6 secretion from whole blood (converted). Here is the method: Measurement of LPS Induced IL-6 Secretion from Whole Blood
Activation of monocytic cells by agonists of toll-like receptors such as bacterial lipopolysaccharide (LPS) results in production of key inflammatory mediators including IL-6. Such pathways are widely considered to be central to the pathophysiology of a range of auto-immune and inflammatory disorders.
Compounds to be tested are diluted to give a range of appropriate concentrations of which 1 ul of the diluted stocks is added to a 96 well plate. Following addition of whole blood (130 ul) the plates are incubated at 37 degrees (5% CO2) for 30 min before the addition of 10 ul of 2.8 ug/ml LPS, diluted in complete RPMI 1640 (final concentration=200 ng/ml), to give a total volume of 140 ul per well. After further incubation for 24 hours at 37 degrees, 140 ul of PBS are added to each well. The plates are sealed, shaken for 10 minutes and then centrifuged (2500 rpm×10 min). 100 ul of the supernatant are removed and IL-6 levels assayed by immunoassay (typically by MesoScale Discovery technology) either immediately or following storage at −20 degrees. Concentration response curves for each compound was generated from the data and an IC50 value was calculated.

Structures can show the parent of a compound that is named as a salt.

On to `CC(=O)N1c2ccc(-c3cc(CN4CCCCC4)co3)cc2[C@@H](NC(=O)OC(C)C)C[C@H]1C` (racemic) [Example 18, 1-methylethyl {(cis)-1-acetyl-2-methyl-6-[4-(1-piperidinylmethyl)-2-furanyl]-1,2,3,4-tetrahydro-4-quinolinyl}carbamate], for which the IC50 with TNFα is at most 6.31 µM.

Take `CC(=O)N1c2ccc(-c3ccc(CN4CCCCC4)cc3)cc2[C@H](N(C)C(=O)OC(C)C)C[C@@H]1C` (racemic) [Example 42, formic acid-1-methylethyl {(cis)-1-acetyl-2-methyl-6-[4-(1-piperidinylmethyl)phenyl]-1,2,3,4-tetrahydro-4-quinolinyl}methylcarbamate (1:1)]: the IC50 in the assay with TNFα is at most 6.31 µM.

As to `CC(=O)N1c2ccc(-c3cnc(N4CCNCC4)cn3)cc2[C@@H](NC(=O)OC(C)C)C[C@H]1C` (racemic) [Example 43, 1-methylethyl {(cis)-1-acetyl-2-methyl-6-[5-(1-piperazinyl)-2-pyrazinyl]-1,2,3,4-tetrahydro-4-quinolinyl}carbamate hydrochloride], the IC50 in the assay with TNFα was at most 6.31 µM. On the same count and under the same terms, next, `CC(=O)N1c2ccc(-c3ccc(CN4CCCC4)cc3)cc2[C@H](NC(=O)OC(C)C)C[C@@H]1C` (relative stereo) [Example 30, 1-methylethyl {(cis)-1-acetyl-2-methyl-6-[4-(1-pyrrolidinylmethyl)phenyl]-1,2,3,4-tetrahydro-4-quinolinyl}carbamate hydrochloride]: at most 6.31 µM; `CC(=O)N1c2ccc(-c3ccc(CN4CCCCC4)o3)cc2[C@@H](NC(=O)OC(C)C)C[C@H]1C` (racemic) [Example 22, 1-methylethyl {(cis)-1-acetyl-2-methyl-6-[5-(1-piperidinylmethyl)-2-furanyl]-1,2,3,4-tetrahydro-4-quinolinyl}carbamate (formic acid salt)]: at most 6.31 µM; `CC(=O)N1c2ccc(-c3cnc(N4CCCCC4)nc3)cc2[C@@H](NC(=O)OC(C)C)C[C@H]1C` (racemic) [Example 49, 1-methylethyl {(cis)-1-acetyl-2-methyl-6-[2-(1-piperidinyl)-5-pyrimidinyl]-1,2,3,4-tetrahydro-4-quinolinyl}carbamate hydrochloride]: at most 6.31 µM. Same read-out and setting: under `CNCc1cccc(-c2ccc3c(c2)[C@H](NC(=O)OC(C)C)C[C@H](C)N3C(C)=O)c1` [Example 111, 1-Methylethyl((2S,4R)-1-acetyl-2-methyl-6-{3-[(methylamino)methyl]phenyl}-1,2,3,4-tetrahydro-4-quinolinyl)carbamate hydrochloride] stands at most 6.31 µM; under `CC(=O)N1c2ccc(-c3ccc(CN4CCCCC4)cc3)cc2[C@@H](NC(=O)OC2CCCC2)C[C@H]1C` (racemic) [Example 36, cyclopentyl {(cis)-1-acetyl-2-methyl-6-[4-(1-piperidinylmethyl)phenyl]-1,2,3,4-tetrahydro-4-quinolinyl}carbamate], at most 6.31 µM; under `CC(=O)N1c2ccc(-c3ccn[nH]3)cc2[C@@H](NC(=O)OC(C)C)C[C@H]1C` (racemic) [Example 31, 1-methylethyl[(cis)-1-acetyl-2-methyl-6-(1H-pyrazol-5-yl)-1,2,3,4-tetrahydro-4-quinolinyl]carbamate], at most 6.31 µM.

In the case of `CC(=O)N1c2ccc(-c3sc(C)nc3C)cc2[C@@H](NC(=O)OC(C)C)C[C@H]1C` (racemic) [Example 32, 1-methylethyl[(cis)-1-acetyl-6-(2,4-dimethyl-1,3-thiazol-5-yl)-2-methyl-1,2,3,4-tetrahydro-4-quinolinyl]carbamate], in the assay with TNFα, the IC50 is at most 6.31 µM. Still for that read-out and setting: next, `CC(=O)N1c2ccc(-c3cnc(N)nc3)cc2[C@@H](NC(=O)OC(C)C)C[C@H]1C` (racemic) [Example 50, 1-methylethyl[(cis)-1-acetyl-6-(2-amino-5-pyrimidinyl)-2-methyl-1,2,3,4-tetrahydro-4-quinolinyl]carbamate hydrochloride]: at most 6.31 µM; `CC(=O)N1c2ccc(-c3ccc(N4CCOCC4)nc3)cc2[C@@H](NC(=O)OC(C)C)C[C@H]1C` (racemic) [Example 10, 1-methylethyl {(cis)-1-acetyl-2-methyl-6-[6-(4-morpholinyl)-3-pyridinyl]-1,2,3,4-tetrahydro-4-quinolinyl}carbamate hydrochloride]: at most 6.31 µM. For `CC(=O)N1c2ccc(-c3cnc(N4CCNCC4)nc3)cc2[C@@H](NC(=O)OC(C)C)C[C@H]1C` (racemic) [Example 44, 1-methylethyl {(cis)-1-acetyl-2-methyl-6-[2-(1-piperazinyl)-5-pyrimidinyl]-1,2,3,4-tetrahydro-4-quinolinyl}carbamate hydrochloride], the IC50 with TNFα is at most 6.31 µM. As for `CC(=O)N1c2ccc(-c3ccc(C#N)cc3)cc2[C@H](NC(=O)OC(C)C)C[C@@H]1C` [Example 120, 1-Methylethyl[(2S,4R)-1-acetyl-6-(4-cyanophenyl)-2-methyl-1,2,3,4-tetrahydro-4-quinolinyl]carbamate], the IC50 in the assay on TNFα is at most 6.31 µM. Consider `CC(=O)N1c2ccc(-c3ncc(CN4CCCCC4)s3)cc2[C@@H](NC(=O)OC(C)C)C[C@H]1C` (racemic) [Example 52, 1-methylethyl {(cis)-1-acetyl-2-methyl-6-[5-(1-piperidinylmethyl)-1,3-thiazol-2-yl]-1,2,3,4-tetrahydro-4-quinolinyl}carbamate hydrochloride], for which the IC50 with TNFα is at most 6.31 µM. Consider `CC(=O)N1c2ccc(-c3ccc(N4CCNCC4)nn3)cc2[C@@H](NC(=O)OC(C)C)C[C@H]1C` (racemic) [Example 45, 1-methylethyl {(cis)-1-acetyl-2-methyl-6-[6-(1-piperazinyl)-3-pyridazinyl]-1,2,3,4-tetrahydro-4-quinolinyl}carbamate hydrochloride], for which the IC50 with TNFα is at most 6.31 µM.

Take `CC(=O)N1c2ccc(-c3noc(CCN)n3)cc2[C@H](NC(=O)OC(C)C)C[C@@H]1C` [Example 77, 1-Methylethyl {(2S,4R)-1-acetyl-6-[5-(2-aminoethyl)-1,2,4-oxadiazol-3-yl]-2-methyl-1,2,3,4-tetrahydro-4-quinolinyl}carbamate hydrochloride]: the IC50 in the assay on IL-6 is at most 31.6 µM. Still for that read-out and setting: under `CC(=O)N1c2ccc(-c3cn(CCN)cn3)cc2[C@H](NC(=O)OC(C)C)C[C@@H]1C` [Example 85, 1-Methylethyl {(2S,4R)-1-acetyl-6-[1-(2-aminoethyl)-1H-imidazol-4-yl]-2-methyl-1,2,3,4-tetrahydro-4-quinolinyl}carbamate hydrochloride] stands at most 31.6 µM; under `COCn1cc(-c2ccc3c(c2)[C@H](NC(=O)OC(C)C)C[C@H](C)N3C(C)=O)cn1` [Example 106, 1-Methylethyl((2S,4R)-1-acetyl-2-methyl-6-{1-[(methyloxy)methyl]-1H-pyrazol-4-yl}-1,2,3,4-tetrahydro-4-quinolinyl)carbamate], at most 31.6 µM; under `CC(=O)N1c2ccc(-c3cn(CCCN)nn3)cc2[C@H](NC(=O)OC(C)C)C[C@@H]1C` [Example 74, 1-Methylethyl {(2S,4R)-1-acetyl-6-[1-(3-aminopropyl)-1H-1,2,3-triazol-4-yl]-2-methyl-1,2,3,4-tetrahydro-4-quinolinyl}carbamate hydrochloride], at most 31.6 µM. Same read-out and setting: under `CC(=O)N1c2ccc(-c3nc(CN)no3)cc2[C@H](NC(=O)OC(C)C)C[C@@H]1C` [Example 69, 1-Methylethyl {(2S,4R)-1-acetyl-6-[3-(aminomethyl)-1,2,4-oxadiazol-5-yl]-2-methyl-1,2,3,4-tetrahydro-4-quinolinyl}carbamate hydrochloride] stands at most 31.6 µM; under `CC(=O)N1c2ccc(-c3cnn(CC(C)(C)O)c3)cc2[C@H](NC(=O)OC(C)C)C[C@@H]1C` [Example 109, 1-Methylethyl {(2S,4R)-1-acetyl-6-[1-(2-hydroxy-2-methylpropyl)-1H-pyrazol-4-yl]-2-methyl-1,2,3,4-tetrahydro-4-quinolinyl}carbamate], at most 31.6 µM; under `CC(=O)N1c2ccc(-c3cn(CC(=O)O)nn3)cc2[C@H](NC(=O)OC(C)C)C[C@@H]1C` [Example 76, {4-[(2S,4R)-1-Acetyl-2-methyl-4-({[(1-methylethyl)oxy]carbonyl}amino)-1,2,3,4-tetrahydro-6-quinolinyl]-1H-1,2,3-triazol-1-yl}acetic acid], at most 31.6 µM. Still for that read-out and setting: next, `CC(=O)N1c2ccc(-c3ccccn3)cc2[C@H](NC(=O)OC(C)C)C[C@@H]1C` [Example 101, 1-Methylethyl[(2S,4R)-1-acetyl-2-methyl-6-(2-pyridinyl)-1,2,3,4-tetrahydro-4-quinolinyl]carbamate]: at most 31.6 µM.
